{"source": "PubChem BioAssay AID1963849", "about": "(Molecular Pharmacology Branch, DTP, NCI, 2024);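 note: spheroids exposed to drugs for one week before measurement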;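 for viability, T/C: percent viability relative to DMSO vehicle control taken as 100%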", "test_system": "299254-011-R-J1-PDC complex spheroid viability", "experiment": "Anticancer human tumor 299254-011-R-J1-PDC patient-derived melanoma cell line growth inhibition [POLQ]", "details": "for IC50: curve of first compound; for viability, T/C: stronger effect = lower value", "procedure,_shortened": "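Three-cell-type spheroids modelling solid tumor plus stroma served as the readout system; POL inhibitors were tested individually and in combination, concentration ranges set by clinical Cmax where known.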", "key": {"[1]": {"details": "second compound 0.0316 µM, first compound 0.0316 µM"}, "[2]": {"details": "second compound 0.0316 µM, first compound 0.1 µM"}, "[3]": {"details": "second compound 0.1 µM, first compound 0.0316 µM"}, "[4]": {"details": "second compound 0.1 µM, first compound 0.1 µM"}, "[5]": {"details": "second compound 0.316 µM, first compound 0.0316 µM"}, "[6]": {"details": "second compound 0.316 µM, first compound 0.1 µM"}, "[7]": {"details": "second compound 1 µM, first compound 0.0316 µM"}, "[8]": {"details": "second compound 1 µM, first compound 0.1 µM"}, "[9]": {"details": "second compound 3.16 µM, first compound 0.0316 µM"}, "[10]": {"details": "second compound 3.16 µM, first compound 0.1 µM"}, "[11]": {"details": "second compound 10 µM, first compound 0.0316 µM"}, "[12]": {"details": "second compound 10 µM, first compound 0.1 µM"}}}
{"smiles": "Nc1ccn(C2OC(CO)C(O)C2(F)F)c(=O)n1", "note": "(centres undefined) + Nc1ccc(C#CCN(C(=O)Cc2ncc(C(F)(F)F)cc2C(F)(F)F)c2ccc(F)cc2)nn1", "values": [{"measurement": "IC50", "setting": "second compound 0.0316 µM", "result": 0.123, "unit": "µM"}, {"measurement": "IC50", "setting": "second compound 0.1 µM", "result": 0.351, "unit": "µM"}, {"measurement": "IC50", "setting": "second compound 0.316 µM", "result": 0.0827, "unit": "µM"}, {"measurement": "IC50", "setting": "second compound 1 µM", "result": 0.252, "unit": "µM"}, {"measurement": "IC50", "setting": "second compound 3.16 µM", "result": 0.144, "unit": "µM"}, {"measurement": "IC50", "setting": "second compound 10 µM", "result": 0.277, "unit": "µM"}, {"measurement": "viability, T/C", "setting": "[1]", "result": 71.9, "unit": "%"}, {"measurement": "viability, T/C", "setting": "[2]", "result": 54.2, "unit": "%"}, {"measurement": "viability, T/C", "setting": "second compound 0.0316 µM, first compound 0.316 µM", "result": 33.7, "unit": "%"}, {"measurement": "viability, T/C", "setting": "second compound 0.0316 µM, first compound 1 µM", "result": 50.7, "unit": "%"}, {"measurement": "viability, T/C", "setting": "second compound 0.0316 µM, first compound 3.16 µM", "result": 51.7, "unit": "%"}, {"measurement": "viability, T/C", "setting": "second compound 0.0316 µM, first compound 10 µM", "result": 47.1, "unit": "%"}, {"measurement": "viability, T/C", "setting": "[3]", "result": 60.7, "unit": "%"}, {"measurement": "viability, T/C", "setting": "[4]", "result": 54.7, "unit": "%"}, {"measurement": "viability, T/C", "setting": "second compound 0.1 µM, first compound 0.316 µM", "result": 49.6, "unit": "%"}, {"measurement": "viability, T/C", "setting": "second compound 0.1 µM, first compound 1 µM", "result": 48.5, "unit": "%"}, {"measurement": "viability, T/C", "setting": "second compound 0.1 µM, first compound 3.16 µM", "result": 46, "unit": "%"}, {"measurement": "viability, T/C", "setting": "second compound 0.1 µM, first compound 10 µM", "result": 46.9, "unit": "%"}, {"measurement": "viability, T/C", "setting": "[5]", "result": 90, "unit": "%"}, {"measurement": "viability, T/C", "setting": "[6]", "result": 41.4, "unit": "%"}, {"measurement": "viability, T/C", "setting": "second compound 0.316 µM, first compound 0.316 µM", "result": 49.6, "unit": "%"}, {"measurement": "viability, T/C", "setting": "second compound 0.316 µM, first compound 1 µM", "result": 37.7, "unit": "%"}, {"measurement": "viability, T/C", "setting": "second compound 0.316 µM, first compound 3.16 µM", "result": 43.7, "unit": "%"}, {"measurement": "viability, T/C", "setting": "second compound 0.316 µM, first compound 10 µM", "result": 38.2, "unit": "%"}, {"measurement": "viability, T/C", "setting": "[7]", "result": 86.2, "unit": "%"}, {"measurement": "viability, T/C", "setting": "[8]", "result": 69.2, "unit": "%"}, {"measurement": "viability, T/C", "setting": "second compound 1 µM, first compound 0.316 µM", "result": 45.1, "unit": "%"}, {"measurement": "viability, T/C", "setting": "second compound 1 µM, first compound 1 µM", "result": 45.7, "unit": "%"}, {"measurement": "viability, T/C", "setting": "second compound 1 µM, first compound 3.16 µM", "result": 48, "unit": "%"}, {"measurement": "viability, T/C", "setting": "second compound 1 µM, first compound 10 µM", "result": 36.4, "unit": "%"}, {"measurement": "viability, T/C", "setting": "[9]", "result": 73.7, "unit": "%"}, {"measurement": "viability, T/C", "setting": "[10]", "result": 51.5, "unit": "%"}, {"measurement": "viability, T/C", "setting": "second compound 3.16 µM, first compound 0.316 µM", "result": 47, "unit": "%"}, {"measurement": "viability, T/C", "setting": "second compound 3.16 µM, first compound 1 µM", "result": 42.1, "unit": "%"}, {"measurement": "viability, T/C", "setting": "second compound 3.16 µM, first compound 3.16 µM", "result": 37.7, "unit": "%"}, {"measurement": "viability, T/C", "setting": "second compound 3.16 µM, first compound 10 µM", "result": 43.5, "unit": "%"}, {"measurement": "viability, T/C", "setting": "[11]", "result": 80, "unit": "%"}, {"measurement": "viability, T/C", "setting": "[12]", "result": 91.5, "unit": "%"}, {"measurement": "viability, T/C", "setting": "second compound 10 µM, first compound 0.316 µM", "result": 45.4, "unit": "%"}, {"measurement": "viability, T/C", "setting": "second compound 10 µM, first compound 1 µM", "result": 36.9, "unit": "%"}, {"measurement": "viability, T/C", "setting": "second compound 10 µM, first compound 3.16 µM", "result": 39.7, "unit": "%"}, {"measurement": "viability, T/C", "setting": "second compound 10 µM, first compound 10 µM", "result": 45, "unit": "%"}]}
{"smiles": "Cn1ncnc1[C@H]1c2n[nH]c(=O)c3cc(F)cc(c23)N[C@@H]1c1ccc(F)cc1", "note": "+ COC1C(OC(N)=O)C(O)C(Oc2ccc3c(O)c(NC(=O)c4ccc(O)c(CC=C(C)C)c4)c(=O)oc3c2C)OC1(C)C", "values": [{"measurement": "IC50", "setting": "second compound 0.0316 µM", "result": "> 0.1", "unit": "µM"}, {"measurement": "IC50", "setting": "second compound 0.1 µM", "result": "> 0.1", "unit": "µM"}, {"measurement": "IC50", "setting": "second compound 0.316 µM", "result": "> 0.1", "unit": "µM"}, {"measurement": "IC50", "setting": "second compound 1 µM", "result": "> 0.1", "unit": "µM"}, {"measurement": "IC50", "setting": "second compound 3.16 µM", "result": "> 0.1", "unit": "µM"}, {"measurement": "IC50", "setting": "second compound 10 µM", "result": "> 0.1", "unit": "µM"}, {"measurement": "viability, T/C", "setting": "second compound 0.0316 µM, first compound 0.000316 µM", "result": 106, "unit": "%"}, {"measurement": "viability, T/C", "setting": "second compound 0.0316 µM, first compound 0.001 µM", "result": 84.4, "unit": "%"}, {"measurement": "viability, T/C", "setting": "second compound 0.0316 µM, first compound 0.00316 µM", "result": 101, "unit": "%"}, {"measurement": "viability, T/C", "setting": "second compound 0.0316 µM, first compound 0.01 µM", "result": 98.8, "unit": "%"}, {"measurement": "viability, T/C", "setting": "[1]", "result": 97, "unit": "%"}, {"measurement": "viability, T/C", "setting": "[2]", "result": 98.1, "unit": "%"}, {"measurement": "viability, T/C", "setting": "second compound 0.1 µM, first compound 0.000316 µM", "result": 101, "unit": "%"}, {"measurement": "viability, T/C", "setting": "second compound 0.1 µM, first compound 0.001 µM", "result": 91.3, "unit": "%"}, {"measurement": "viability, T/C", "setting": "second compound 0.1 µM, first compound 0.00316 µM", "result": 105, "unit": "%"}, {"measurement": "viability, T/C", "setting": "second compound 0.1 µM, first compound 0.01 µM", "result": 90.9, "unit": "%"}, {"measurement": "viability, T/C", "setting": "[3]", "result": 106, "unit": "%"}, {"measurement": "viability, T/C", "setting": "[4]", "result": 87.6, "unit": "%"}, {"measurement": "viability, T/C", "setting": "second compound 0.316 µM, first compound 0.000316 µM", "result": 89.4, "unit": "%"}, {"measurement": "viability, T/C", "setting": "second compound 0.316 µM, first compound 0.001 µM", "result": 94.6, "unit": "%"}, {"measurement": "viability, T/C", "setting": "second compound 0.316 µM, first compound 0.00316 µM", "result": 101, "unit": "%"}, {"measurement": "viability, T/C", "setting": "second compound 0.316 µM, first compound 0.01 µM", "result": 92, "unit": "%"}, {"measurement": "viability, T/C", "setting": "[5]", "result": 107, "unit": "%"}, {"measurement": "viability, T/C", "setting": "[6]", "result": 96.2, "unit": "%"}, {"measurement": "viability, T/C", "setting": "second compound 1 µM, first compound 0.000316 µM", "result": 105, "unit": "%"}, {"measurement": "viability, T/C", "setting": "second compound 1 µM, first compound 0.001 µM", "result": 111, "unit": "%"}, {"measurement": "viability, T/C", "setting": "second compound 1 µM, first compound 0.00316 µM", "result": 102, "unit": "%"}, {"measurement": "viability, T/C", "setting": "second compound 1 µM, first compound 0.01 µM", "result": 118, "unit": "%"}, {"measurement": "viability, T/C", "setting": "[7]", "result": 96.5, "unit": "%"}, {"measurement": "viability, T/C", "setting": "[8]", "result": 97.4, "unit": "%"}, {"measurement": "viability, T/C", "setting": "second compound 3.16 µM, first compound 0.000316 µM", "result": 99.7, "unit": "%"}, {"measurement": "viability, T/C", "setting": "second compound 3.16 µM, first compound 0.001 µM", "result": 103, "unit": "%"}, {"measurement": "viability, T/C", "setting": "second compound 3.16 µM, first compound 0.00316 µM", "result": 98.9, "unit": "%"}, {"measurement": "viability, T/C", "setting": "second compound 3.16 µM, first compound 0.01 µM", "result": 93.2, "unit": "%"}, {"measurement": "viability, T/C", "setting": "[9]", "result": 103, "unit": "%"}, {"measurement": "viability, T/C", "setting": "[10]", "result": 100, "unit": "%"}, {"measurement": "viability, T/C", "setting": "second compound 10 µM, first compound 0.000316 µM", "result": 106, "unit": "%"}, {"measurement": "viability, T/C", "setting": "second compound 10 µM, first compound 0.001 µM", "result": 105, "unit": "%"}, {"measurement": "viability, T/C", "setting": "second compound 10 µM, first compound 0.00316 µM", "result": 115, "unit": "%"}, {"measurement": "viability, T/C", "setting": "second compound 10 µM, first compound 0.01 µM", "result": 112, "unit": "%"}, {"measurement": "viability, T/C", "setting": "[11]", "result": 119, "unit": "%"}, {"measurement": "viability, T/C", "setting": "[12]", "result": 99.6, "unit": "%"}]}
